Patent US12303554B2, “Use of ultrarapid acting insulin” (MannKind Corporation, priority 2008, dated 2025)
Where two headings read alike, the source gives them in different places.

Key:
[1] = cited from earlier work
[2] = 52-week clinical trial in type 1 diabetes: basal insulin + prandial TI Inhalation Powder vs basal insulin + SC insulin aspart; assay type: in vivo, human
Source text: A Prospective, Multi-Center, Open-Label, Randomized, Controlled Clinical Trial Comparing the Efficacy and Safety in Subjects with Type 1 Diabetes Receiving SC Basal Insulin and Prandial Inhalation of Insulin-FDKP Versus SC Basal and Prandial Insulin Over a 52-Week Treatment Period and a 4-Week Follow-up
This was a prospective, multi-country, multicenter, open label, randomized, controlled clinical trial comparing glycemic control in subjects with type 1 diabetes receiving basal insulin and prandial insulin-FDKP (TI) Inhalation Powder (TI Inhalation Powder group) with subjects receiving basal insulin and SC rapid-acting insulin aspart (comparator group). This study included a 52-week treatment phase and a 4-week follow-up phase. During the 4-week follow-up phase, pulmonary function and select clinical laboratory assessments were scheduled.
The study began with enrollment at Week −3. Subjects received a complete battery of safety and eligibility assessments, including HbA1c and fasting plasma glucose (FPG).
At Week −1, subjects were randomized to one of the following 2 treatments: • Basal insulin+prandial TI Inhalation Powder • Basal insulin+prandial SC rapid-acting insulin
At Week −1, subjects again completed the first three components of the Insulin Treatment Questionnaire (ITQ) for the purpose of assessing test-retest reliability only). After completing the questionnaire, subjects randomized to the TI Inhalation Powder group were trained on the MEDTONE® Inhaler using TECHNOSPHERE®/insulin (insulin-FDKP) inhalation powder; subjects in the comparator group were trained in the use of the NOVOLOG® pens; all subjects were trained in administration of LANTUS®. Additionally, all subjects were trained on a blood glucose monitoring (HBGM) meter provided at the beginning of the trial and diary and received diabetes education. Any training was repeated at Week 0, if needed.
At the beginning of the treatment phase, subjects had several titration/dose evaluation visits to adjust insulin therapy. Titration visits occurred once a week for the first 4 weeks. During Weeks 4 through 10, there were three telephone “visits” (at Week 6, Week 8, and Week 10) to titrate dose, if necessary. However, dose titration was allowed throughout the trial.
All subjects completed a 7-point blood glucose profile on any 3 days during the week immediately preceding each visit from Week 0 to Week 52. The 7 time points included samples from before breakfast and 2 hours after breakfast, before the mid-day meal and 2 hours after the mid-day meal, before the evening meal and 2 hours after the evening meal and at bedtime (7 time points a day, over 3 days). These blood glucose (BG) values were recorded in the HBGM diary that was collected at clinic visits. The diaries for Weeks 4 through 10 (during dose titration) which were discussed over the telephone were collected at the next office visits.
A meal challenge test was performed at Week 4 (during dose titration), Week 26, and Week 52. Meal challenge venous blood sampling times were: −30, 0, 30, 60, 90, 105, 120, 180, 240, 300, and 360 minutes. Blood glucose (BG) was also measured using HBGM glucose meters to aid the Investigator in treatment decisions and values were obtained at −30, 0, 60, and 120 minutes during the meal challenge.
Treatments for glycemic control used in the trial were the following: prandial insulin-FDKP (TI) inhalation powder, prandial insulin aspart, and basal insulin glargine. Subjects assigned to the TI Inhalation Powder group (TI Inhalation Powder in combination with basal insulin therapy) received sc basal insulin glargine (LANTUS®) once daily (at bedtime) and inhaled TI Inhalation Powder 3 to 4 times a day, immediately before main meals or a snack as based upon clinical need. Adjustment of the TI Inhalation Powder dose and frequency of use to greater than 3 times a day was at the discretion of the Investigator. […]

[3] = assay type: in vivo, human
Protocol: The insulin-FDKP formulation is administered to the subjects by oral inhalation using a MEDTONE® dry powder inhaler (MannKind Corp.). Methods and results below are described in terms of the Original Protocol (OP), which includes the meal challenge in 18 subjects with three treatments (EXUBERA®, lispro and TI) and Amendment 1 (A1), which includes 12 subjects treated with only TI and lispro. […] The subjects were screened and evaluated before, during and after the experiments and their data analyzed as described below. Subjects were selected based on several key inclusion criteria, including, male and female, having ≥18 and ≤70 years of age with clinical diagnosis of type 2 diabetes mellitus for ≥12 months. The subjects selected for the study also had stable anti-diabetic regimen with insulin for the previous 3 months; HbA1c ≤8.5%; Body Mass Index (BMI) between ≤34 kg/m^2 and ≥25 kg/m^2; urine cotinine ≤100 ng/mL; […] Criteria for exclusion from the study also included unstable diabetes control and/or evidence of serious complications of diabetes (e.g., autonomic neuropathy); serum creatinine >1.8 mg/dL in female subjects and >2.0 mg/dL in male subjects. Other clinically important pulmonary disease was confirmed by documented history or pulmonary function testing. Under OP, the study was planned to be a randomized, open label, 3-way cross-over study. […] At this analysis all patients at least had completed the meal challenge visits and only those data have been used. The screening visit(s) (V1) occurred 1 to 21 days before the first treatment visit (V2) with 7 to 21 days elapsing between treatment-visits (V2, V3, and V4) for the meal challenge test. A minimum of 8 weeks elapsed between V4 and the next treatment visit, (V6). An additional safety visit (V5) was scheduled 1-3 days prior to the first of 3 glucose clamp procedures (V6). The glucose clamp procedure occurred at 3 visits, Visits V6, V7, and V8, with 7 to 21 days elapsing between the visits. […] Each treatment visit during the meal challenge had the subjects hospitalized in the clinical unit the night before initiation of treatment. […] Each subject followed the same randomization order for the glucose-clamp procedures as for the meal challenge tests. During the study, periodic blood draws for determination of pharmacokinetic and/or pharmacodynamic parameters, and safety were taken beginning at 12 hours prior to onset of the treatment regimens and meal challenge, and thereafter for a period of 8 hours. […] Meal Challenge Test: BOOST PLUS® (12 fl. oz.) consisting of 67.5 g carbohydrate, 21 g protein, 21 g fat, energy content 540 kcal was used for the meal challenge test. The BOOST PLUS® was enriched with U-^13C-glucose to determine the amount of absorbed glucose. Concurrent enriched continuous infusion of 6,6-^2H2 glucose was used to assess endogenous glucose production EGP. […] Under OP, the dose for insulin lispro was selected based on information obtained from the regulatory label. The dose selected for EXUBERA® was obtained by means of back calculation of the most commonly used dose information presented to the FDA Advisory Committee in the EXUBERA® Briefing Document. […] Blood glucose concentrations were measured at regular intervals from arterialized venous blood samples. The amount of orally absorbed glucose was estimated by determination of U-^13C-glucose. EGP was determined by measurement of 6,6-^2H2 glucose applying the modified calculations for the non-steady state ([…], and D. T. Stein. Calculating glucose fluxes during meal tolerance test: a new computational approach. Am. J. Physiol Endocrinol. Metab 293 (2):[…]-[…], 2007). C-peptide concentrations were measured pre- and post-dose to assess endogenous insulin secretion. In addition, glucagon and free fatty acid concentrations were also determined.

[4] = assay type: in vivo, human; conditions: 10 U lispro
Protocol: Following the completion of the meal challenge, the data was analyzed as per the statistical analysis plan. […] The study was amended (A1) and included 12 subjects (10 were reenrolled from the first meal challenge), and only two treatments, which were 10 U lispro and 60 and 90 U TI. The doses were selected based on the relative bioavailability observed following the first meal challenge (OP), where under an assumption of linear kinetics, 10 U lispro and 60 U TI would result in similar exposure. The 90 U dose group was included to assess the effect of the highest dose group of TI studied in Phase 3 trials. Six of the 12 subjects received 60 U TI and the other 6 subjects received 90 U TI. All 12 subjects received 10 U lispro in a crossover fashion. […] Blood glucose concentrations were measured at regular intervals from arterialized venous blood samples. […] EGP was determined by measurement of 6,6-^2H2 glucose applying the modified calculations for the non-steady state ([…], and D. T. Stein. Calculating glucose fluxes during meal tolerance test: a new computational approach. Am. J. Physiol Endocrinol. Metab 293 (2):[…]-[…], 2007). C-peptide concentrations were measured pre- and post-dose to assess endogenous insulin secretion. In addition, glucagon and free fatty acid concentrations were also determined.

[5] = 52 weeks, + basal insulin glargine
[6] = 52 weeks, + basal insulin, baseline 187.6 (SD 85.1) TI, 180.8 (SD 86.9) comparator
[7] = 45 U insulin-FDKP, 4 mg EXUBERA, 12 U lispro, FIG. 6

Substance: Regular human insulin: regular human insulin preparations for subcutaneous injection, considered short acting
- Duration of significant elevation or activity ([1]; subcutaneous injection): 10 to 12 h

Substance: insulin aspart
- Percentage of subjects whose HbA1c level decreased to ≤6.5% [2, 5]: 7.31%
- Percentage of subjects whose HbA1c level decreased to ≤7.0% [2, 5]: 15.98%
- Percentage of subjects whose HbA1c level decreased to ≤8.0% [2, 5]: 56.16%
- Mean FPG at the end of the treatment period [2, 6]: 161.3 (SD 68.2) mg/dL
- Mean decrease in fasting plasma glucose (FPG) over the treatment period [2, 6]: 23.4 (SD 103.1) mg/dL
- HbA1c at Week 14 ([2]; + basal insulin glargine, baseline 8.41 (SD 0.92) TI arm, 8.48 (SD 0.97) insulin aspart arm): 8.07 (SD 1.09) %
- Average body weight gain ([2]; over the 52-week treatment period, + basal insulin): 1.4 kg
- Median Tmax ([1]; subjects with type 1 diabetes, prescribing information): 40 to 50 min

Substance: insulin glulisine: rapid acting insulin analog
- Range of Tmax ([1]; type 1 and type 2 diabetes populations, prescribing information): 40 to 120 min

Substance: insulin lispro: rapid acting insulin analog, subcutaneously administered (Eli Lilly & Co.)
- Time post-treatment at which (further) glucose infusion was needed to remain above 90 mg/dL ([3]; 45 U insulin-FDKP inhaled, 4 mg EXUBERA inhaled, 12 U lispro sc at onset of meal): ~3 h
- Time of peak inhibition of endogenous glucose production after treatment ([3]; 45 U insulin-FDKP, 4 mg EXUBERA, 12 U lispro, FIG. 5): about 80 minutes
- Time of peak glucose disappearance rate after dosing [3, 7]: about 120 minutes
- Time post dosing at which glucose disappearance rate became substantial / departed from baseline [3, 7]: about 30 minutes
- Total insulin exposure, greater than following 45 U insulin-FDKP (TI) or 4 mg EXUBERA ([3]; human, in vivo): approximately 40%
- Insulin concentration tmax (median) ([3]; human, in vivo, 4 mg): 75 min
- Time of peak glucose disappearance rate after dosing ([4]; 60 U and 90 U insulin-FDKP, FIG. 11): about 100 minutes
- Time of peak inhibition of endogenous glucose production following dosing ([4]; 60 U or 90 U insulin-FDKP (two treatments, dose assignment not stated), FIG. 10): about 100 minutes
